Assay results published in PubChem BioAssay (NCI).
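Following 48 hours of exposure in 96-well plates, responses at five concentrations were used to interpolate endpoints linearly. TGI denotes the concentration required for complete inhibition of growth.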

Key:
Experiment in all cases: NCI-60 cell line screen, 48 h
[1] = test system: HS 578T breast
[2] = test system: SW-620 colon
[3] = test system: HL-60(TB) leukemia
[4] = test system: UACC-257 melanoma
[5] = test system: TK-10 renal
[6] = test system: MDA-N
[7] = test system: 786-0 renal
[8] = test system: K-562 leukemia
[9] = test system: HOP-92 NSCLC
[10] = test system: T-47D breast
[11] = test system: SK-MEL-2 melanoma
[12] = test system: HCT-15 colon
[13] = test system: NCI-H226 lung
[14] = test system: MALME-3M melanoma
[15] = test system: MCF7 breast
[16] = test system: HT29 colon
[17] = test system: LOX IMVI melanoma
[18] = test system: UO-31 renal
[19] = test system: HCT-116 colon
[20] = test system: M14 melanoma
[21] = test system: SF-539 CNS
[22] = test system: SN12C renal
[23] = test system: OVCAR-8 ovarian
[24] = test system: SR leukemia
[25] = test system: HOP-62 NSCLC
[26] = test system: NCI/ADR-RES ovarian
[27] = test system: SK-MEL-28 melanoma
[28] = test system: NCI-H460 lung
[29] = test system: DU-145 prostate
[30] = test system: CCRF-CEM leukemia
[31] = test system: SK-MEL-5 melanoma
[32] = test system: UACC-62 melanoma
[33] = test system: RPMI-8226 leukemia
[34] = test system: CAKI-1 renal
[35] = test system: MOLT-4 leukemia
[36] = test system: MDA-MB-435
[37] = test system: SF-268 CNS
[38] = test system: KM12 colon
[39] = test system: OVCAR-3 ovarian
[40] = test system: IGROV1 ovarian
[41] = test system: OVCAR-5 ovarian
[42] = test system: SK-OV-3 ovarian
[43] = test system: HCC-2998 colon
[44] = test system: PC-3 prostate
[45] = test system: OVCAR-4 ovarian
[46] = test system: A549 NSCLC
[47] = test system: EKVX NSCLC
[48] = test system: SF-295 CNS
[49] = test system: MDA-MB-231 breast
[50] = test system: ACHN renal
[51] = test system: SNB-75 CNS
[52] = test system: COLO 205 colon
[53] = test system: U251 CNS
[54] = test system: NCI-H23 lung
[55] = test system: NCI-H522 lung
[56] = test system: SNB-19 CNS
[57] = test system: BT-549 breast
[58] = test system: RXF 393 renal

CC1(C)CC2C(C1=O)C1(C)CCCC2(C)C1=O (stereo unspecified)
TGI [1]: > 100 µM | TGI [2]: > 100 µM | TGI [3]: > 100 µM | TGI [4]: > 100 µM | TGI [5]: > 100 µM | TGI [6]: > 100 µM | TGI [7]: > 100 µM | TGI [8]: > 100 µM | TGI [9]: > 100 µM | TGI [10]: > 100 µM | TGI [11]: > 100 µM | TGI [12]: > 100 µM | TGI [13]: > 100 µM | TGI [14]: > 100 µM | TGI [15]: > 100 µM | TGI [16]: > 100 µM | TGI [17]: > 100 µM | TGI [18]: > 100 µM | TGI [19]: > 100 µM | TGI [20]: > 100 µM | TGI [21]: > 100 µM | TGI [22]: > 100 µM | TGI [23]: > 100 µM | TGI [24]: > 100 µM | TGI [25]: > 100 µM | TGI [26]: > 100 µM | TGI [27]: > 100 µM | TGI [28]: > 100 µM | TGI [29]: > 100 µM | TGI [30]: > 100 µM | TGI [31]: > 100 µM | TGI [32]: > 100 µM | TGI [33]: > 100 µM | TGI [34]: > 100 µM | TGI [35]: > 100 µM | TGI [36]: > 100 µM | TGI [37]: > 100 µM | TGI [38]: > 100 µM | TGI [39]: > 100 µM | TGI [40]: > 100 µM | TGI [41]: > 100 µM | TGI [42]: > 100 µM | TGI [43]: > 100 µM | TGI [44]: > 100 µM | TGI [45]: > 100 µM | TGI [46]: > 100 µM | TGI [47]: > 100 µM | TGI [48]: > 100 µM | TGI [49]: > 100 µM | TGI [50]: > 100 µM | TGI [51]: > 100 µM | TGI [52]: > 100 µM | TGI [53]: > 100 µM | TGI [54]: > 100 µM

CN1C(=O)N(C)C2(CCN(CCCCCCF)CC2)C1=O
TGI [2]: > 100 µM | TGI [3]: > 100 µM | TGI [4]: > 100 µM | TGI [5]: > 100 µM | TGI [6]: > 100 µM | TGI [7]: > 100 µM | TGI [8]: > 100 µM | TGI [10]: > 100 µM | TGI [55]: > 100 µM | TGI [12]: > 100 µM | TGI [13]: > 100 µM | TGI [56]: > 100 µM | TGI [14]: > 100 µM | TGI [15]: > 100 µM | TGI [16]: > 100 µM | TGI [17]: > 100 µM | TGI [18]: > 100 µM | TGI [19]: > 100 µM | TGI [20]: > 100 µM | TGI [21]: > 100 µM | TGI [22]: > 100 µM | TGI [23]: > 100 µM | TGI [24]: > 100 µM | TGI [25]: > 100 µM | TGI [26]: > 100 µM | TGI [27]: > 100 µM | TGI [29]: > 100 µM | TGI [30]: > 100 µM | TGI [57]: > 100 µM | TGI [31]: > 100 µM | TGI [32]: > 100 µM | TGI [33]: > 100 µM | TGI [58]: > 100 µM | TGI [34]: > 100 µM | TGI [36]: 71.1 µM | TGI [37]: > 100 µM | TGI [38]: > 100 µM | TGI [39]: > 100 µM | TGI [40]: > 100 µM | TGI [41]: > 100 µM | TGI [42]: > 100 µM | TGI [43]: > 100 µM | TGI [44]: > 100 µM | TGI [46]: > 100 µM | TGI [47]: > 100 µM | TGI [48]: > 100 µM | TGI [49]: > 100 µM | TGI [50]: > 100 µM | TGI [51]: > 100 µM | TGI [52]: > 100 µM | TGI [53]: > 100 µM | TGI [54]: > 100 µM
